SMILES strings stand for the structures.

One experiment concerns the target T1, GenX (PoxA, YjeA) (Escherichia coli, UniProt P0A8N7).
T1 sequence (P0A8N7 1-325): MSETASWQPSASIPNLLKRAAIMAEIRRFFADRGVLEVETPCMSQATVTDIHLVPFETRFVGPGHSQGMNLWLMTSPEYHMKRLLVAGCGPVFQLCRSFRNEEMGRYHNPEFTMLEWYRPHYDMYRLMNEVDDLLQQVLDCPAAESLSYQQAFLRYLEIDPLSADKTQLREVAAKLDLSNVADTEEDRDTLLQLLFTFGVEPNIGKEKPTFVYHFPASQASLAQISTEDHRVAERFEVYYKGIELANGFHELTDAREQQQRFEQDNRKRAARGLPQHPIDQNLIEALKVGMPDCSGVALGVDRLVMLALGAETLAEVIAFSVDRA
Briefly: inhibition of lysine activation, ATP-[…]PPi exchange. It counts as biochemical.

In the next experiment the target is T2, E. coli LysRS (Escherichia coli, UniProt P0A8N3).
T2 sequence (P0A8N3 2-505): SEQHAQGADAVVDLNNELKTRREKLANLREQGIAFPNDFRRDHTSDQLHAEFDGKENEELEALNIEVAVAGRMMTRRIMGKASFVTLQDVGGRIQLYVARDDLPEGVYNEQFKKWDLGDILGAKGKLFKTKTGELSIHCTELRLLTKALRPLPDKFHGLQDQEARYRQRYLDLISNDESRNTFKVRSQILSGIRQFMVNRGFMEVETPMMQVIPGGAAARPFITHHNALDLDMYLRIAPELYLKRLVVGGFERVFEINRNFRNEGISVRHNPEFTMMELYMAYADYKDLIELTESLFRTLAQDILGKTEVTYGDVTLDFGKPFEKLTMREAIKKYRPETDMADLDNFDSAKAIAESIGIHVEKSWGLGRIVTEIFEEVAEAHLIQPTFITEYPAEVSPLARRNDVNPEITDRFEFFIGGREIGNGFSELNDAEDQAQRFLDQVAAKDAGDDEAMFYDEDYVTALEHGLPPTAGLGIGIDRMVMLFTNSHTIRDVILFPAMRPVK
Kind of experiment: amino acid activation. It counts as biochemical. The conditions noted are these: analog 25 mM; ATP.

Consider `NCCCC[C@H](N)C(=O)NO` [compound 2, L-lysine hydroxamate], for which the Ki (as a rule, a dissociation constant, usually derived from enzyme kinetics or from competition with a known ligand) on GenX (PoxA, YjeA) was 150 µM.

As for `NCCCC[C@H](N)C(N)=O` [compound 3, lysinamide], affinity at GenX (PoxA, YjeA) was put at a Ki of 280 µM.

On to `NCCSC[C@H](N)C(=O)O` [compound 1, S-(2-aminoethyl)-L-cysteine], for which the amino acid activation entry at E. coli LysRS is given as “E. coli LysRS readily activates S-(2-aminoethyl)-L-cysteine (AEC), ornithine”.

The values are drawn from paper PMC2900529 (FEBS letters, 2010).
